# *1 amine or outer side, *2 acyl side, *3 side chain or, on linkers, in order; H or OH if unused. Where a SMILES comes first, the peptide text is derived from it. Bridges are numbered along the chain shown (N, C = ends). [ ]: non-standard residue; d: D form. Adipoyl = O=C(CCCCC(=O)[*:2])[*:1]; hArg = N=C(N)NCCCC[C@H](N)C(=O)O; Nle = CCCC[C@H](N)C(=O)O; Aib = CC(C)(N)C(=O)O
# Molecular target: T1, Parathyroid hormone/parathyroid hormone-related peptide receptor (Homo sapiens) (UniProt Q03431)
# T1 sequence (whole entry): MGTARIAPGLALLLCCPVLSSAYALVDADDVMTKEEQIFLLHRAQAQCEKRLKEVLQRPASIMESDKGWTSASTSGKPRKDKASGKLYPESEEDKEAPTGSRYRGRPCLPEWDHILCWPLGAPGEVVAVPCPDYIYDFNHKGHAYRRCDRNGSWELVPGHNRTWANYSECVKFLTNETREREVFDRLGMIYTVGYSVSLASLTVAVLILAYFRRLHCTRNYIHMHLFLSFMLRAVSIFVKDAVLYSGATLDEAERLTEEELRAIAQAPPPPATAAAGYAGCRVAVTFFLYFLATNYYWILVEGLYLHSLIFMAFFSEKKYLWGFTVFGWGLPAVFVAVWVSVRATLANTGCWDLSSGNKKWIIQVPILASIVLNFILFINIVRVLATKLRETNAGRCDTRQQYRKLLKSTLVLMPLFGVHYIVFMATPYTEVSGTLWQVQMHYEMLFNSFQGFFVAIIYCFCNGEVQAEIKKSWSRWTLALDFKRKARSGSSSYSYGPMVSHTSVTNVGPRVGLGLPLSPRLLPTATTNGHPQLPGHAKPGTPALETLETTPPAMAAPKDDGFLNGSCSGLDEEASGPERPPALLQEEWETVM
# Assay: Agonist activity at recombinant PTHR1 expressed in HEK293 cells co-transfected with CRE-Luc assessed as maximal increase of adenylyl cyclase activity after 4.5 hrs by luciferase assay relative to control
# Type: functional, cell-based
row,Activity [%],Structure (SMILES)
1,98,CCCC[C@@H]1NC(=O)[C@H](CC(C)C)NC(=O)[C@@H](NC(=O)[C@@H](NC(=O)[C@H](CCC(=O)O)NC(=O)C(C)(C)NC(=O)[C@@H](NC(=O)C(C)(C)N)C(C)C)[C@@H](C)CC)CCCCNC(=O)CC[C@@H](C(=O)N[C@@H](CCCCNC(=N)N)C(N)=O)NC(=O)[C@H](Cc2cnc[nH]2)NC1=O (H-[Aib]V[Aib]EIKL[Nle]HE[hArg]-NH2; lactam 6-10)
2,90,CCCC[C@H](NC(=O)[C@H](CC(C)C)NC(=O)[C@H](CCC(N)=O)NC(=O)[C@@H](NC(=O)[C@H](CCC(=O)O)NC(=O)C(C)(C)NC(=O)[C@@H](NC(=O)C(C)(C)N)C(C)C)[C@@H](C)CC)C(=O)N[C@@H](Cc1cnc[nH]1)C(=O)N[C@@H](CCC(N)=O)C(=O)N[C@@H](CCCCNC(=N)N)C(N)=O (H-[Aib]V[Aib]EIQL[Nle]HQ[hArg]-NH2)
3,159,CCCC[C@@H]1NC(=O)[C@H](CC(C)C)NC(=O)[C@@H](NC(=O)[C@@H](NC(=O)[C@H](CCC(=O)O)NC(=O)C(C)(C)NC(=O)[C@@H](NC(=O)C(C)(C)N)C(C)C)[C@@H](C)CC)COC(=O)CCCCC(=O)OC[C@@H](C(=O)N[C@@H](CCCCNC(=N)N)C(N)=O)NC(=O)[C@H](Cc2cnc[nH]2)NC1=O (H-[Aib]V[Aib]EISL[Nle]HS[hArg]-NH2; linker 6-10 via Adipoyl)

# Molecular target: T2, Parathyroid hormone/parathyroid hormone-related peptide receptor (Homo sapiens, UniProt Q03431)
# T2 sequence (Q03431 whole entry): T1 sequence (whole entry)
# Assay: Agonist activity at recombinant PTHR1 expressed in HEK293 cells co-transfected with CRE-Luc assessed as increase of adenylyl cyclase activity after 4.5 hrs by luciferase assay
# Type: functional, cell-based
row,EC50 [nM],Structure (SMILES)
1,1120,CCCC[C@@H]1NC(=O)[C@H](CC(C)C)NC(=O)[C@@H](NC(=O)[C@@H](NC(=O)[C@H](CCC(=O)O)NC(=O)C(C)(C)NC(=O)[C@@H](NC(=O)C(C)(C)N)C(C)C)[C@@H](C)CC)CCCCNC(=O)CC[C@@H](C(=O)N[C@@H](CCCCN=C(N)N)C(N)=O)NC(=O)[C@H](Cc2cnc[nH]2)NC1=O (H-[Aib]V[Aib]EIKL[Nle]HE[hArg]-NH2; lactam 6-10)
2,2.4,CCCC[C@H](NC(=O)[C@H](CC(C)C)NC(=O)[C@H](CCC(N)=O)NC(=O)[C@@H](NC(=O)[C@H](CCC(=O)O)NC(=O)C(C)(C)NC(=O)[C@@H](NC(=O)C(C)(C)N)C(C)C)[C@@H](C)CC)C(=O)N[C@@H](Cc1cnc[nH]1)C(=O)N[C@@H](CCC(N)=O)C(=O)N[C@@H](CCCCN=C(N)N)C(N)=O (H-[Aib]V[Aib]EIQL[Nle]HQ[hArg]-NH2)
3,0.2,CCCC[C@@H]1NC(=O)[C@H](CC(C)C)NC(=O)[C@@H](NC(=O)[C@@H](NC(=O)[C@H](CCC(=O)O)NC(=O)C(C)(C)NC(=O)[C@@H](NC(=O)C(C)(C)N)C(C)C)[C@@H](C)CC)COC(=O)CCCCC(=O)OC[C@@H](C(=O)N[C@@H](CCCCN=C(N)N)C(N)=O)NC(=O)[C@H](Cc2cnc[nH]2)NC1=O (H-[Aib]V[Aib]EISL[Nle]HS[hArg]-NH2; linker 6-10 via Adipoyl)

# — ChEMBL document CHEMBL1275398, “Side chain cyclization based on serine residues: synthesis, structure, and activity of a novel cyclic analogue of the parathyroid hormone fragment 1-11” (J Med Chem, 2010)
